Data published in ChEMBL document CHEMBL1201862, “PubChem BioAssay data set” (2004).
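Where inhibition never reached the appropriate level, the endpoint shown equals the highest concentration tested. Otherwise, values were interpolated linearly from a five-concentration, 48-hour dose response in 96-well plates. At the GI50, growth is halved.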 Activity calls are given as the source filed them. Cut-off read from the data, not from the text of the source: active = GI50 up to about 1.1 µM and inactive = higher.

Legend:
Experiment in all cases: inhibition of tumour cell growth, NCI panel, 48 h
[1] = system: 786-0
[2] = system: A498
[3] = system: ACHN
[4] = system: HOP-62
[5] = system: HOP-92
[6] = system: IGROV-1
[7] = system: LOX IMVI
[8] = system: M14
[9] = system: NCI-H226
[10] = system: OVCAR-5
[11] = system: RXF 393
[12] = system: SF-295
[13] = system: SF-539
[14] = system: SNB-75
[15] = system: SR
[16] = system: SW-620
[17] = system: UACC-62
[18] = system: UO-31
[19] = system: PC-3

## C#CCN(N=O)C(=O)NC(CCCNC(=O)OCc1ccccc1)C(=O)OCc1ccccc1 (configuration not stated)
[1]
  GI50: > 100 µM (inactive)
[2]
  GI50: > 100 µM (inactive)
[3]
  GI50: > 100 µM (inactive)
[4]
  GI50: > 100 µM (inactive)
[5]
  GI50: 30.9 µM (inactive)
[6]
  GI50: > 100 µM (inactive)
[7]
  GI50: 52.4 µM (inactive)
[8]
  GI50: > 100 µM (inactive)
[9]
  GI50: > 100 µM (inactive)
[10]
  GI50: > 100 µM (inactive)
[11]
  GI50: 22.6 µM (inactive)
[12]
  GI50: > 100 µM (inactive)
[13]
  GI50: 75.7 µM (inactive)
[14]
  GI50: > 100 µM (inactive)
[15]
  GI50: 34.8 µM (inactive)
[16]
  GI50: 55.8 µM (inactive)
[17]
  GI50: > 100 µM (inactive)
[18]
  GI50: > 100 µM (inactive)

## CSC1CC2C(CC1(C)SC)C2(C)C (configuration not stated)
[1]
  GI50: 64.9 µM (inactive)
[2]
  GI50: > 100 µM (inactive)
[3]
  GI50: > 100 µM (inactive)
[4]
  GI50: > 100 µM (inactive)
[5]
  GI50: 16.3 µM (inactive)
[6]
  GI50: 42.8 µM (inactive)
[7]
  GI50: 30.7 µM (inactive)
[8]
  GI50: 92 µM (inactive)
[9]
  GI50: 24.7 µM (inactive)
[10]
  GI50: 40.8 µM (inactive)
[11]
  GI50: 56.5 µM (inactive)
[12]
  GI50: 30.8 µM (inactive)
[13]
  GI50: > 100 µM (inactive)
[14]
  GI50: 23.2 µM (inactive)
[15]
  GI50: 30.8 µM (inactive)
[16]
  GI50: > 100 µM (inactive)
[17]
  GI50: 60.7 µM (inactive)
[18]
  GI50: 19.9 µM (inactive)

## NC(=O)/C(=N\NC(=O)C[n+]1ccccc1)C1NC(=O)NC1=O (configuration not stated)
[1]
  GI50: > 100 µM (inactive)
[2]
  GI50: > 100 µM (inactive)
[3]
  GI50: > 100 µM (inactive)
[4]
  GI50: > 100 µM (inactive)
[5]
  GI50: > 100 µM (inactive)
[6]
  GI50: > 100 µM (inactive)
[7]
  GI50: > 100 µM (inactive)
[8]
  GI50: > 100 µM (inactive)
[9]
  GI50: > 100 µM (inactive)
[10]
  GI50: > 100 µM (inactive)
[11]
  GI50: > 100 µM (inactive)
[12]
  GI50: > 100 µM (inactive)
[13]
  GI50: > 100 µM (inactive)
[14]
  GI50: > 100 µM (inactive)
[15]
  GI50: > 100 µM (inactive)
[16]
  GI50: 33.6 µM (inactive)
[17]
  GI50: > 100 µM (inactive)
[18]
  GI50: > 100 µM (inactive)

## COc1cc(/C=C2\NC(=S)C3Cc4c(OC)c(C)c(OC)c(OC)c4C2N3C)c(OC)c(C)c1OC (configuration not stated)
[1]
  GI50: 73.1 µM (inactive)
[2]
  GI50: 63.5 µM (inactive)
[3]
  GI50: 48.2 µM (inactive)
[4]
  GI50: > 100 µM (inactive)
[5]
  GI50: 9.38 µM (inactive)
[6]
  GI50: > 100 µM (inactive)
[7]
  GI50: 48 µM (inactive)
[8]
  GI50: 42.8 µM (inactive)
[9]
  GI50: 22.6 µM (inactive)
[10]
  GI50: > 100 µM (inactive)
[11]
  GI50: 24.7 µM (inactive)
[12]
  GI50: 50.5 µM (inactive)
[13]
  GI50: > 100 µM (inactive)
[14]
  GI50: > 100 µM (inactive)
[15]
  GI50: 10.4 µM (inactive)
[16]
  GI50: 59.4 µM (inactive)
[17]
  GI50: 98.4 µM (inactive)
[18]
  GI50: 21.2 µM (inactive)

## CCN(CC)CC(C)(C)C(=O)/C=C/c1cccc(/C=C/C(=O)C(C)(C)CN(CC)CC)c1
[1]
  GI50: 0.579 µM (active)
[2]
  GI50: 1.36 µM (inactive)
[3]
  GI50: 1.15 µM (inactive)
[4]
  GI50: 2.31 µM (inactive)
[5]
  GI50: 0.504 µM (active)
[6]
  GI50: 1.02 µM (active)
[7]
  GI50: 0.184 µM (active)
[8]
  GI50: 1.48 µM (inactive)
[9]
  GI50: 1.76 µM (inactive)
[10]
  GI50: 1.63 µM (inactive)
[11]
  GI50: 0.433 µM (active)
[12]
  GI50: 1.74 µM (inactive)
[13]
  GI50: 1.05 µM (active)
[14]
  GI50: 0.176 µM (active)
[15]
  GI50: 0.305 µM (active)
[16]
  GI50: 0.187 µM (active)
[17]
  GI50: 1.74 µM (inactive)
[18]
  GI50: 1.75 µM (inactive)

## COC1(OC)N=C(N)C2(C#N)C(C)CC(=O)N(N(C)C)C12C#N (configuration not stated)
[1]
  GI50: > 100 µM (inactive)
[2]
  GI50: > 100 µM (inactive)
[3]
  GI50: > 100 µM (inactive)
[4]
  GI50: > 100 µM (inactive)
[5]
  GI50: > 100 µM (inactive)
[6]
  GI50: > 100 µM (inactive)
[7]
  GI50: > 100 µM (inactive)
[8]
  GI50: > 100 µM (inactive)
[9]
  GI50: > 100 µM (inactive)
[10]
  GI50: > 100 µM (inactive)
[19]
  GI50: > 100 µM (inactive)
[11]
  GI50: > 100 µM (inactive)
[12]
  GI50: > 100 µM (inactive)
[13]
  GI50: > 100 µM (inactive)
[14]
  GI50: 40.5 µM (inactive)
[15]
  GI50: > 100 µM (inactive)
[16]
  GI50: > 100 µM (inactive)
[17]
  GI50: > 100 µM (inactive)
[18]
  GI50: > 100 µM (inactive)

## Cc1ccccc1/N=N/c1c(-c2ccccc2)nn(C(=O)CC(=O)Nc2cccc(Cl)c2)c1-c1ccccc1
[1]
  GI50: 18.5 µM (inactive)
[2]
  GI50: 19 µM (inactive)
[3]
  GI50: 23 µM (inactive)
[4]
  GI50: > 31.6 µM (inactive)
[5]
  GI50: 26.3 µM (inactive)
[6]
  GI50: > 31.6 µM (inactive)
[7]
  GI50: 15.3 µM (inactive)
[8]
  GI50: 22.1 µM (inactive)
[9]
  GI50: 16 µM (inactive)
[10]
  GI50: 16.7 µM (inactive)
[11]
  GI50: 19.9 µM (inactive)
[12]
  GI50: 22 µM (inactive)
[13]
  GI50: 24.2 µM (inactive)
[14]
  GI50: 28.2 µM (inactive)
[15]
  GI50: 9.1 µM (inactive)
[16]
  GI50: 3.16 µM (inactive)
[17]
  GI50: 22 µM (inactive)
[18]
  GI50: 14.5 µM (inactive)
